From ChEMBL document CHEMBL2021797, “Synthesis and structure-activity relationship study of antimicrotubule agents phenylahistin derivatives with a didehydropiperazine-2,5-dione structure” (J Med Chem, 2012)

Key:
HT-29 = experiment: Cytotoxicity against human HT-29 cells after 48 hrs using resazurin by microplate fluorometer analysis; type: functional, cell-based; details: HT-29, 48 h
HeLa [1] = experiment: Induction of cell cycle arrest in human HeLa cells assessed as accumulation at S phase at 30 nM after 18 hrs by propidium iodide based flow cytometric analysis (reference value: 39.9 %); type: functional
HeLa [2] = experiment: Induction of cell cycle arrest in human HeLa cells assessed as accumulation at G0/G1 phase at 30 nM after 18 hrs by propidium iodide based flow cytometric analysis (reference value: 43.9 %); type: functional
HeLa [3] = experiment: Induction of cell cycle arrest in human HeLa cells assessed as accumulation at G2/M phase at 10 nM after 18 hrs by propidium iodide based flow cytometric analysis (reference value: 16.2 %); type: functional
[4] = Binding affinity to bovine tubulin after 1 hr by spectrofluorometric analysis; design: species or system Bos taurus
HeLa [5] = experiment: Induction of cell cycle arrest in human HeLa cells assessed as accumulation at S phase at 10 nM after 18 hrs by propidium iodide based flow cytometric analysis (reference value: 39.9 %); type: functional
HeLa [6] = experiment: Induction of cell cycle arrest in human HeLa cells assessed as accumulation at G2/M phase at 30 nM after 18 hrs by propidium iodide based flow cytometric analysis (reference value: 16.2 %); type: functional
HeLa [7] = experiment: Induction of cell cycle arrest in human HeLa cells assessed as accumulation at G0/G1 phase at 10 nM after 18 hrs by propidium iodide based flow cytometric analysis (reference value: 43.9 %); type: functional
HeLa [8] = experiment: Induction of cell cycle arrest in human HeLa cells assessed as accumulation at G2/M phase at 3 nM after 18 hrs by propidium iodide based flow cytometric analysis (reference value: 16.2 %); type: functional
HUVEC [9] = experiment: Induction of microtubule depolymerization in HUVEC after 30 mins by DAPI staining method; type: cell-based; details: Homo sapiens
HeLa [10] = experiment: Induction of cell cycle arrest in human HeLa cells assessed as accumulation at G0/G1 phase at 3 nM after 18 hrs by propidium iodide based flow cytometric analysis (reference value: 43.9 %); type: functional
HeLa [11] = experiment: Induction of cell cycle arrest in human HeLa cells assessed as accumulation at S phase at 3 nM after 18 hrs by propidium iodide based flow cytometric analysis (reference value: 39.9 %); type: functional
HUVEC [12] = experiment: Cytotoxicity against HUVEC after 48 hrs using resazurin by microplate fluorometer analysis; type: cell-based; details: Homo sapiens
[13] = Inhibition of bovine brain tubulin polymerization by thermostatic spectrophotometer; design: species or system Bos taurus
HeLa [14] = experiment: Induction of cell cycle arrest in human HeLa cells assessed as accumulation at G2/M phase at 100 nM after 18 hrs by propidium iodide based flow cytometric analysis (reference value: 16.2 %); type: functional
Mus musculus = experiment: Toxicity in nu/nu mouse assessed as weight loss at 1.25 to 7.5 mg/kg, ip after 40 days; type: organism-based; details: in vivo, 960 h
DU-145 [15] = experiment: Antitumor activity against human DU145 cells xenografted in nu/nu mouse assessed as tumor growth inhibition at […], ip administered on day 1, 3, 5, 8 and […] measured on day 40 relative to control; type: functional; details: DU-145, ip, read-out: TGI
DU-145 [16] = experiment: Antitumor activity against human DU145 cells xenografted in nu/nu mouse assessed as tumor growth inhibition at 7.5 mg/kg, ip administered on day 1, 3, 5, 8 and […] measured on day 40 relative to control; type: functional; details: DU-145, ip, route intraperitoneal, read-out: TGI
DU-145 [17] = details: Homo sapiens
DU-145 [18] = experiment: Antitumor activity against human DU145 cells xenografted in nu/nu mouse assessed as tumor growth inhibition at 3.75 mg/kg, ip administered on day 1, 3, 5, 8 and […] measured on day 40 relative to control; type: functional; details: DU-145, ip, route intraperitoneal, read-out: TGI
HeLa [19] = experiment: Induction of cell cycle arrest in human HeLa cells assessed as accumulation at S phase at 100 nM after 18 hrs by propidium iodide based flow cytometric analysis (reference value: 39.9 %); type: functional
HeLa [20] = experiment: Induction of cell cycle arrest in human HeLa cells assessed as accumulation at G0/G1 phase at 100 nM after 18 hrs by propidium iodide based flow cytometric analysis (reference value: 43.9 %); type: functional

**Q.** With `COc1cc(/C=c2\[nH]c(=O)/c(=C/c3nc[nH]c3C(C)(C)C)[nH]c2=O)cc(OC)c1` as the molecule, how does the IC50 (HT-29) read?
**A.** 45.4 nM

**Q.** Which Activity (HeLa [1]) does the source give for `COc1cc2c(c(OC)c1OC)-c1ccc(OC)c(=O)cc1[C@@H](NC(C)=O)CC2` [COLCHICINE] here?
**A.** 8.9%

**Q.** And the Activity (HeLa [2])?
**A.** 1.3%

**Q.** And the Activity (HeLa [3])?
**A.** 21%

**Q.** What about the IC50 (HT-29) of the same molecule?
**A.** 16 nM

**Q.** What about the Activity (HeLa [5]) of the same molecule?
**A.** 31.5%

**Q.** And the Activity (HeLa [6])?
**A.** 89.9%

**Q.** And the Activity (HeLa [7])?
**A.** 47.5%

**Q.** With `COc1ccc(/C=C\c2cc(OC)c(OC)c(OC)c2)cc1O` [COMBRETASTATIN A4] as the molecule, how does the Activity (HeLa [8]) read?
**A.** 37.4%

**Q.** What about the ED100 (HUVEC [9]) of the same molecule?
**A.** 10 nM

**Q.** And the Activity (HeLa [3])?
**A.** 90.7%

**Q.** And the Activity (HeLa [5])?
**A.** 8.8%

**Q.** What about the Activity (HeLa [7]) of the same molecule?
**A.** 0.4%

**Q.** And the Activity (HeLa [10])?
**A.** 34.6%

**Q.** And the Activity (HeLa [11])?
**A.** 28.1%

**Q.** And the IC50 (HUVEC [12])?
**A.** 2.4 nM

**Q.** What about the IC50 [13] of the same molecule?
**A.** 550 nM

**Q.** With `CC(C)(C)c1[nH]cnc1/C=c1\[nH]c(=O)/c(=C/c2ccccc2)[nH]c1=O` [PLINABULIN] as the molecule, how does the Activity (HeLa [1]) read?
**A.** 40.4%

**Q.** And the Activity (HeLa [2])?
**A.** 4.2%

**Q.** And the Activity (HeLa [14])?
**A.** 97.6%

**Q.** And the ED100 (HUVEC [9])?
**A.** 3 nM

**Q.** And the Activity (HeLa [3])?
**A.** 17.9%

**Q.** What about the Activity (Mus musculus) of the same molecule?
**A.** Non-toxic

**Q.** And the inhibition in vivo at […] (DU-145 [15])?
**A.** 29%

**Q.** And the Kd [4]?
**A.** 1000 nM

**Q.** What about the inhibition in vivo at 7.5 mg/kg (DU-145 [16]) of the same molecule?
**A.** 58.5%

**Q.** What about the Activity (HeLa [5]) of the same molecule?
**A.** 37.5%

**Q.** What about the Activity (HeLa [6]) of the same molecule?
**A.** 55.3%

**Q.** What about the TGI (DU-145 [17]) of the same molecule?
**A.** Dose-dependent effect

**Q.** And the inhibition in vivo at 3.75 mg/kg (DU-145 [18])?
**A.** 38.6%

**Q.** What about the Activity (HeLa [7]) of the same molecule?
**A.** 44.6%

**Q.** And the IC50 (HUVEC [12])?
**A.** 11 nM

**Q.** And the IC50 [13]?
**A.** 1310 nM

**Q.** And the Activity (HeLa [19])?
**A.** 2.4%

**Q.** What about the Activity (HeLa [20]) of the same molecule?
**A.** 0%
